Measurements from patent US20070207225A1 (priority 2006, published 2007).

Experiments:
insulin resistance = experiment: Insulin resistance (HOMA-IR) in postmenopausal women, six month treatment; assay type: in vivo, human; details: for Insulin resistance: HOMA-IR, n = 30, mean±SEM
Text: (§1) Cardiovascular risk markers, according to various embodiments of the present invention, may comprise fasting insulin levels, fasting glucose levels, insulin resistance levels, osteoprotegerin levels, sex hormone-binding globulin levels, fibrinogen levels, estradiol levels and/or the like. […] See Crisafulli A., Altavilla D., Marini H., Bitto A., Cucinotta D., Frisina N., Corrado F., D'Anna R., Squadrito G., Adamo E., Marini R., Romeo A., Cancellieri F., Buemi M., Squadrito F., Menopause, The Journal of the North American Menopause Society, Vol. 12 No. 2 pp. 186-192.
(§2) Prior to this six month period, participants in the study were placed on a standard fat-reduced diet for four-weeks, which constituted a stabilization process.
To measure insulin resistance levels, insulin was measured by a commercially available ELISA kit according to the protocol of the manufacturer (DRG Diagnostik, Frauenberg Germany) (intraassay CV 4%; interassay CV 6%; lower detection limit, <1.5 μlU/ml). Serum glucose was measured by an enzymatic kit (BioSystemSA, Barcelona, Spain), (intra-assay CV 1%; interassay CV 1.8%; lower detection limit, 0.0126 mmol/l). Glucose in the sample produces, by means of the coupled reactions, a colored complex that can be spectrophotometrically measured. Insulin resistance was calculated using the Homeostasis Model Assessment method (HOMA-IR=(insulin×glucose)/22.5).
(§3) Data was presented as mean±SEM, and the significance of the difference was assessed by analysis of variance, where a value of P less than 0.05 was considered statistically significant.

fibrinogen = experiment: Fibrinogen levels in postmenopausal women, six month treatment; assay type: in vivo, human; details: for Fibrinogen: n = 30, mean±SEM
Text: as §1, §2
To measure fibrinogen levels, automated routine procedures were utilized.
as §3

fasting glucose = experiment: Fasting glucose levels in postmenopausal women, six month treatment (enzymatic kit); assay type: in vivo, human; details: for Fasting Glucose: n = 30, mean±SEM
Text: as §1, §2
To measure fasting glucose levels, serum glucose was measured by an enzymatic kit (BioSystemSA, Barcelona, Spain), (intra-assay CV 1%; interassay CV 1.8%; lower detection limit, 0.0126 mmol/L). Glucose in the sample produces, by means of the coupled reactions, a colored complex that can be spectrophotometrically measured.
as §3

homocysteine = experiment: Plasma homocysteine in osteopenic women, six month study (immunochemiluminescent assay); assay type: in vivo, human
Text: Inflammatory markers, according to various representative embodiments of the present invention, may comprise G-reactive proteins and/or homocysteine and/or the like. […] Prior to the six month period, participants in the study were placed on a standard fat-reduced diet for four-weeks, which constituted a stabilization process. […] Throughout the study period, samples were obtained while participants were fasting to minimize dietary effects. The samples were used to measure serum C-reactive protein and plasma homocysteine.
Plasma homocysteine was measured using an immunochemiluminescent assay (Immulite DPC, Los Angeles, Calif., USA). Samples were stored after separation at −80° C. until assayed. Homocysteine was assayed on plasma samples after treatment with S-adenosyl-L-homocysteine (SAH) hydrolase and dithiothreitol (DTT) solution. EDTA plasma was separated from the cells as soon as possible after collection. Samples were stored on ice between the time of sampling and centrifugation.
(§4) For statistical evaluation of the serum C-reactive protein and homocysteine, a two-way ANOVA with Bonferroni post-test was performed.

estradiol = experiment: Estradiol levels in postmenopausal women, six month treatment (HPLC-UV); assay type: in vivo, human; details: for Estradiol: baseline, prior to six month treatment, n = 30
Text: as §1, §2
(§5) The assay was performed by using an HPLC method with UV detection.
as §3

[1] = Plasma genistein levels in postmenopausal women, six month treatment (HPLC-UV); assay type: in vivo, human; details: for Plasma Genistein: baseline, prior to six month treatment, n = 30
Text: as §1, §2, §5, §3

fasting insulin = experiment: Fasting insulin levels in postmenopausal women, six month treatment (ELISA); assay type: in vivo, human; details: for Fasting Insulin: n = 30, mean±SEM
Text: as §1, §2
To measure fasting insulin levels, insulin was measured by a commercially available ELISA kit according to the protocol of the manufacturer (DRG Diagnostik, Frauenberg Germany) (intraassay CV 4%; interassay CV 6%; lower detection limit, <1.5 μlU/ml).
as §3

osteoprotegerin = experiment: Osteoprotegerin levels in postmenopausal women, six month treatment (ELISA); assay type: in vivo, human; details: for Osteoprotegerin: n = 30, mean±SEM
Text: as §1, §2
To measure osteoprotegerin levels, a commercially available ELISA kit according to the protocol of the manufacturer (Immunodiagnostik Bensheim Germany) was utilized. This assay detects monomeric, dimeric, and ligand-bound forms of OPG (intra-assay CV 5%; interassay CV 6%; lower detection limit, 0.14 pmol/l).
as §3

C-reactive protein = experiment: Serum C-reactive protein in osteopenic women, six month study (immunochemiluminescent assay); assay type: in vivo, human
Text: Inflammatory markers, according to various representative embodiments of the present invention, may comprise G-reactive proteins and/or homocysteine and/or the like. […] Prior to the six month period, participants in the study were placed on a standard fat-reduced diet for four-weeks, which constituted a stabilization process. The participants were then randomly assigned to receive either genistein, HRT or a placebo. Throughout the study period, samples were obtained while participants were fasting to minimize dietary effects. The samples were used to measure serum C-reactive protein and plasma homocysteine.
Serum C-reactive protein was measured using an immunochemiluminescent assay (Immulite DPC, Los Angeles, Calif., USA). Samples were stored after separation at −80° C. until assayed. Sensitivity was 0.07 μg/ml with intra- and interassay coefficient of variations of 3.1 and 5.7%, respectively. The reference interval was 0.20-5.10 μg/ml.
as §4

[2] = tested on: sex hormone-binding globulin; experiment: Sex hormone-binding globulin levels in postmenopausal women, six month treatment (immunoradiometric assay); assay type: in vivo, human; details: for Sex Hormone Binding Globulin: n = 30, mean±SEM
Text: as §1, §2
To measure sex hormone-binding globulin levels, an immunoradiometric assay (RADIM SPA, Rome, Italy) (intra-assay CV 4%; interassay CV 5%; lower detection limit, 2.5 nmol/L) was used.
as §3

estrogen receptor ERα = molecular target: T1, estrogen receptor ERα (Homo sapiens, UniProt P03372); details: competition assays, literature (Morito et al. 2001); cited from earlier work
T1 sequence (P03372 1-595): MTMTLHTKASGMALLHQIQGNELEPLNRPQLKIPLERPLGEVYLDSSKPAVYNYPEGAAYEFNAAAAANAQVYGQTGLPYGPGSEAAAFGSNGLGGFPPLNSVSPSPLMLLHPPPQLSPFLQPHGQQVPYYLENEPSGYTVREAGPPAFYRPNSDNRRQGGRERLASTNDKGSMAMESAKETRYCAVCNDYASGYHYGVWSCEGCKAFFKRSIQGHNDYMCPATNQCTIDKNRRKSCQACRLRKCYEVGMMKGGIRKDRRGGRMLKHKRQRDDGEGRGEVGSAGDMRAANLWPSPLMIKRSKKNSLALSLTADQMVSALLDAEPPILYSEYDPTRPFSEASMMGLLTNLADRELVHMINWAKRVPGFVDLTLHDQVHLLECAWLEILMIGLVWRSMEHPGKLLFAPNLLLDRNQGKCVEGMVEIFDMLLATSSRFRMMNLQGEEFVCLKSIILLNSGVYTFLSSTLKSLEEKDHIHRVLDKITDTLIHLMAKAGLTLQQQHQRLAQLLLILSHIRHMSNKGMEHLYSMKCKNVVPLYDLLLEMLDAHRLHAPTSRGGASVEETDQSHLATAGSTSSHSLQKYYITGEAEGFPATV

estrogen receptor ERβ = estrogen receptor ERβ (Homo sapiens, UniProt Q92731); details: competition assays, literature (Morito et al. 2001); cited from earlier work
estrogen receptor ERβ, sequence (Q92731 whole entry): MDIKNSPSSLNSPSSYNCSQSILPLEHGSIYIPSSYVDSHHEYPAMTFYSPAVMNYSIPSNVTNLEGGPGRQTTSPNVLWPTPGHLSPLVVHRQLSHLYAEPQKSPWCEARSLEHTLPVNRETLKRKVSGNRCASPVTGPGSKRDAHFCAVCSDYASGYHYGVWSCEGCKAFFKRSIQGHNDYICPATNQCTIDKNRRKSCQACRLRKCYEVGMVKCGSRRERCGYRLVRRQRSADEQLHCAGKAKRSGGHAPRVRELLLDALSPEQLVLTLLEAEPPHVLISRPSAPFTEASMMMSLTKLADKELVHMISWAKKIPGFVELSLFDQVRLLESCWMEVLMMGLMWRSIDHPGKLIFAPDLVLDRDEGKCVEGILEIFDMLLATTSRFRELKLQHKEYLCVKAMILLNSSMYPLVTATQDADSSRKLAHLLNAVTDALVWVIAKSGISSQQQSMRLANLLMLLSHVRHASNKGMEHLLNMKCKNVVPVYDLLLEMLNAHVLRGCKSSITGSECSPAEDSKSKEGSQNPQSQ

[3] = after six months, genistein 54 mg/d
[4] = baseline, prior to six month treatment
[5] = after six months, genistein 54 mg/d, listed as genistein
[6] = baseline to six months, not taking uncertainties into account
[7] = baseline, prior to six month treatment, listed as genistein
[8] = osteopenic women, after six months, genistein 54 mg/day or HRT, mean ± SE
[9] = osteopenic women, before treatment (baseline), n = 30, mean ± SE

SMILES: O=c1c(-c2ccc(O)cc2)coc2cc(O)cc(O)c12 [Genistein, 4′,5,7-Trihydroxyisoflavone 5,7-Dihydroxy-3-(4-hydroxyphenyl)-4H-1-benzopyran-4-one]
- Decrease of insulin resistance levels (insulin resistance; after six months, FIG. 7): −14±5.8%
- Insulin resistance (insulin resistance; [3]): 1.18 ± 0.08
- Insulin resistance (insulin resistance; [4]): 1.47 ± 0.12
- Fibrinogen (fibrinogen; [3]): 3.18 ± 0.12 g/L
- Fibrinogen (fibrinogen; [5]): 3.18 ± 0.12 g/L
- Decrease of fibrinogen levels (fibrinogen; [6]): ~11.7%
- Fibrinogen (fibrinogen; [4]): 3.6 ± 0.12 g/L
- Fibrinogen (fibrinogen; [7]): 3.6 ± 0.12 g/L
- Decrease in levels of fasting glucose (fasting glucose; after six months of treatment, P<0.001 as compared to placebo, FIG. 5): 8.7±2.3%
- Fasting Glucose (fasting glucose; [3]): 4.3 ± 0.10
- Fasting Glucose (fasting glucose; [4]): 4.74 ± 0.11
- Plasma homocysteine mean value, change from baseline (homocysteine; after six months, difference not statistically significant (P>0.05)): slightly decreased from baseline
- Plasma homocysteine, After (homocysteine; [8]): 10.72 ± 0.46 µmol/L
- Plasma homocysteine, Before (homocysteine; [9]): 11.36 ± 0.39 µmol/L
- Estradiol levels, six month readings (estradiol; after 6 months, genistein 54 mg/d, FIG. 4A): approximately 78 pmol/L
- Estradiol (estradiol): 73 ± 2.19 pmol/L
- Estradiol (estradiol; listed as genistein): approximately 74 pmol/L
- Effect on estradiol levels (estradiol; given over a six month period, FIG. 4A): does not significantly elevate estradiol levels
- Increase in plasma genistein levels after 6 months of treatment ([1]; 6 months vs baseline): approximately 60%
- Plasma Genistein [1]: 0.07 ± 0.004 µmol/L
- Plasma Genistein ([1]; listed as genistein): approximately 0.75 μmol/l
- concentration at 6 months ([1]; female, human, in vivo, 54 mg/d): ~1200 nM
- Decrease of fasting insulin levels (fasting insulin; after six months, FIG. 6): −12±3.33%
- Fasting Insulin (fasting insulin; [3]): 6.24 ± 0.45
- Fasting Insulin (fasting insulin; [4]): 7 ± 0.55
- Decrease of osteoprotegerin levels (osteoprotegerin; after six months, FIG. 8): −2±0.3%
- Osteoprotegerin (osteoprotegerin; [3]): 4.4 ± 0.11
- Osteoprotegerin (osteoprotegerin; [4]): 4.67 ± 0.13
- C-reactive protein level, change from baseline (C-reactive protein; after 6 months of treatment): no significant differences at the end of treatment from baseline
- Serum C-reactive protein (CRP), After (C-reactive protein; [8]): 2.13 ± 0.45 mg/L
- Serum C-reactive protein (CRP), Before (C-reactive protein; [9]): 1.73 ± 0.31 mg/L
- Sex Hormone Binding Globulin [2, 3]: 63 ± 3.83 nmol/L
- Sex Hormone Binding Globulin [2, 5]: 63 ± 3.83 nmol/L
- Decrease of sex hormone binding globulin levels [2, 6]: ~11.3%
- Sex Hormone Binding Globulin [2, 4]: 71 ± 4.2 nmol/L
- Sex Hormone Binding Globulin [2, 7]: 71 ± 4.2 nmol/L

SMILES: Oc1ccc([C@H]2COc3cc(O)ccc3C2)cc1 [equol]
- Binding to estrogen receptor ERα (estrogen receptor ERα): binding similar to the isoflavones, but lower than genistein
- Binding to estrogen receptor ERβ (estrogen receptor ERβ): binding similar to the isoflavones, but lower than genistein

SMILES: O=C1c2c(O)cc(O)cc2OCC1c1ccc(O)cc1 (stereo not shown) [dihydrogenistein]
- Binding to estrogen receptor ERα (estrogen receptor ERα): binding similar to the isoflavones, but lower than genistein
- Binding to estrogen receptor ERβ (estrogen receptor ERβ): binding similar to the isoflavones, but lower than genistein
